Reference: patent US20020026052A1, “3-cyanoquinolines, 3-cyano-1,6-naphthyridines, and 3-cyano-1,7-naphthyridines as protein kinase inhibitors” (American Home Products Corporation, priority 2000, published 2002)

In the case of `CCN1CCN(c2ccc(-c3ccc4c(Nc5ccc(Sc6nccn6C)c(Cl)c5)c(C#N)cnc4c3)nc2)CC1` [Example 108, 4-({3-Chloro-4-[(1-methyl-1H-imidazol-2-yl)sulfanyl]phenyl}amino)-7-[5-(4-ethyl-1-piperazinyl)-2-pyridinyl]-3-quinolinecarbonitrile], the melting point is reported as 246 to 248 °C.
`Cn1ccnc1Sc1ccc(Nc2c(C#N)cnc3cc(-c4ccc(CN5CCOCC5)nc4)ccc23)cc1Cl` [Example 109, 4-({3-chloro-4-[(1-methylimidazol-2-yl)sulfanyl]phenyl}amino)-7-[6-(4-morpholinylmethyl)-3-pyridinyl]-3-quinolinecarbonitrile] gave a melting point of 233 to 235 °C.
Work on `COc1cc2c(Nc3ccc(Sc4nccn4C)c(Cl)c3)c(C#N)cnc2cc1-c1csc(CN2CCOCC2)c1` [Example 125, 4-{3-chloro-4-[(1-methylimidazol-2-yl)sulfanyl]anilino}-6-methoxy-7-[5-(4-morpholinylmethyl)-3-thienyl]-3-quinolinecarbonitrile] yielded a melting point of 238 to 240 °C.
With `COc1cc2c(Nc3ccc(Sc4nccn4C)c(Cl)c3)c(C#N)cnc2cc1-c1csc(CN2CCN(C)CC2)c1` [Example 126, 4-{3-chloro-4-[(1-methylimidazol-2-yl)sulfanyl]anilino}-6-methoxy-7-{5-[(4-methyl-1-piperazinyl)methyl]-3-thienyl}-3-quinolinecarbonitrile] the melting point was 162 to 164 °C.
Work on `COc1ccc(-c2cc3ncc(C#N)c(Nc4ccc(Sc5nccn5C)c(Cl)c4)c3cc2OC)cc1` [Example 127, 4-{3-Chloro-4-[(I -methyl-iH-imidazol-2-yl)sulfanyl]anilino}-6-methoxy-7-(4-methoxyphenyl)-3-quinolinecarbonitrile] yielded a melting point of 227 to 229 °C.
Work on `Cn1ccnc1Sc1ccc(Nc2c(C#N)cnc3cc(-c4ccc(C(=O)N5CCOCC5)cc4)ccc23)cc1Cl` [Example 129, 4-({3-Chloro-4-[(i-methyl-IH-imidazol-2-yl)sulfanyl]phenyl}amino)-7-[4-(4-morpholinylcarbonyl)phenyl]-3-quinolinecarbonitrile] yielded a melting point of 98 to 101 °C.
For `COCCOc1ccc(-c2ccc3c(Nc4cc(OC)c(Cl)cc4Cl)c(C#N)cnc3c2)cc1` [Example 130, 4-(2,4-Dichloro-5-methoxyanilino)-7-{4-[(2-methoxy)ethoxy]phenyl}-3-quinolinecarbonitrile], the melting point was 205 to 207 °C.
`Cn1ccnc1Sc1ccc(Nc2c(C#N)cnc3cc(-c4ccc(CN5CCC(O)CC5)cc4)ccc23)cc1Cl` [Example 134, 4-{3-Chloro-4-[(1-methyl-LH-imidazol-2-yl)sulfanyl]anilino}-7-{4-[(4-hydroxy-1-piperidinyl)methyl]phenyl}-3-quinolinecarbonitrile] showed a melting point of 230 to 232 °C.
Work on `CN1CCN(Cc2ccc(-c3ccc4c(Nc5ccc(Sc6nccn6C)c(Cl)c5)c(C#N)cnc4c3)cc2)CC1` [Example 135, 4-{3-chloro-4-[(1-methylimidazol-2-yl)sulfanyl]anilino}-7-{4-[(4-methyl-1-piperazinyl)methyl]phenyl}-3-quinolinecarbonitrile] yielded a melting point of 202 to 203 °C.
Molecule `Cn1ccnc1Sc1ccc(Nc2c(C#N)cnc3cc(-c4ccc(CN5CCN(C(=O)OC(C)(C)C)CC5)cc4)ccc23)cc1Cl` [Example 137, tert-butyl 4-{4-[4-({3-chloro-4-[(1-methylimidazol-2-yl)sulfanyl]phenyl}amino)-3-cyano-7-quinolinyl]benzyl}-1-piperazinecarboxylate] has a melting point of 184 to 186 °C.
With `COc1cc(Nc2c(C#N)cnc3cc(-c4ccc(CN5CC[S+]([O-])CC5)cc4)ccc23)c(Cl)cc1Cl` [Example 151, 4-[(2,4-Dichloro-5-methoxyphenyl)amino]-7-{4-[(1-oxido-4-thiomorpholinyl)methyl]phenyl}-3-quinolinecarbonitrile] the melting point was 244 to 247 °C.
With `Cn1ccnc1Sc1ccc(Nc2c(C#N)cnc3cc(-c4ccc(CN5CCOCC5)o4)ccc23)cc1Cl` [Example 154, 4-{3-Chloro-4-[(1-methyl-1H-imidazol-2-yl)sulfanyl]anilino}-7-[5-(4-morpholinylmethyl)-2-furyl]-3-quinolinecarbonitrile] the melting point was 224 to 226 °C.
For `Cn1ccnc1Sc1ccc(Nc2c(C#N)cnc3cc(-c4ccc(CN5CCN(CCO)CC5)o4)ccc23)cc1Cl` [Example 157, 4-{3-Chloro-4-[(1-methyl-1H-irnidazol-2-yl)sulfanyl]anilino}-7-(5-{[4-(2-hydroxyethyl)-1-piperazinyl]methyl}-2-furyl)-3-quinolinecarbonitrile], the melting point was 206 to 209 °C.
In the case of `Cn1ccnc1Sc1ccc(Nc2c(C#N)cnc3cc(-c4ccc(CN5CCC(O)CC5)s4)ccc23)cc1Cl` [Example 159, 4-{3-Chloro-4-[(1-methyl-1H-imidazol-2-yl)sulfanyl]anilino}-7-{5-[(4-hydroxy-1-piperidinyl)methyl]-2-thienyl}-3-quinolinecarbonitrile], the melting point is reported as 147 to 149 °C.
For `Cn1ccnc1Sc1ccc(Nc2c(C#N)cnc3cc(-c4ccc(CN5CCCCC5)s4)ccc23)cc1Cl` [Example 160, 4-{3-Chloro-4-[(1-methyl-1H-imidazol-2-yl)sulfanyl]anilino}-7-[5-(1-piperidinylmethyl)-2-thienyl]-3-quinolinecarbonitrile], the melting point was 100 °C (dec.).
Work on `Cn1ccnc1Sc1ccc(Nc2c(C#N)cnc3cc(-c4ccc(CN5CCN(CCO)CC5)s4)ccc23)cc1Cl` [Example 161, 4-{3-Chloro-4-[(1-methyl-1H-imidazol-2-yl)sulfanyl]anilino}-7-(5-{[4-(2-hydroxyethyl)-1-piperazinyl]methyl}-2-thienyl)-3-quinolinecarbonitrile] yielded a melting point of 145 to 147 °C.
With `N#Cc1cnc2cc(-c3cc(CN4CCOCC4)c(CN4CCOCC4)s3)ccc2c1Nc1ccc(Oc2ccccc2)cc1` [Example 168, 7-[4,5-Bis(4-morpholinylmethyl)-2-thienyl]-4-(4-phenoxyanilino)-3-quinolinecarbonitrile] the melting point was 158 to 160 °C.
For `Cn1ccnc1Sc1ccc(Nc2c(C#N)cnc3cc(-c4cc(CN5CCOCC5)c(CN5CCOCC5)s4)ccc23)cc1Cl` [Example 169, 7-[4,5-Bis(4-morpholinylmethyl)-2-thienyl]-4-{3-chloro-4-[(1-methyl-1H-irnidazol-2-yl)sulfanyl]anilino}-3-quinolinecarbonitrile], the melting point was 173 to 175 °C.
With `Cn1ccnc1Sc1ccc(Nc2c(C#N)cnc3cc(-c4ccc(C=O)cn4)ccc23)cc1Cl` [Example 170, 4-{3-Chloro-4-[(1-methyl-1H-imidazol-2-yl)sulfanyl]anilino}-7-(5-formyl-2-pyridinyl)-3-quinolinecarbonitrile] the melting point was 130 °C (dec.).
Work on `CCN1CCN(Cc2ccc(-c3ccc4c(Nc5ccc(Sc6nccn6C)c(Cl)c5)c(C#N)cnc4c3)nc2)CC1` [Example 171, 4-{3-Chloro-4-[(1-methyl-1H-imidazol-2-yl)sulfanyl]anilino}-7-{5-[(4-ethyl-1-piperazinyl)methyl]-2-pyridinyl}-3-quinolinecarbonitrile] yielded a melting point of 125 to 130 °C.
Work on `Cn1ccnc1Sc1ccc(Nc2c(C#N)cnc3cc(-c4ccc(CN5CCC(O)CC5)cn4)ccc23)cc1Cl` [Example 172, 4-{3-Chloro-4-[(1-methyl-1H-imidazol-2-yl)sulfanyl]anilino}-7-{5-[(4-hydroxy-1-piperidinyl)methyl]-2-pyridinyl}-3-quinolinecarbonitrile] yielded a melting point of 194 to 196 °C.
`Cn1ccnc1Sc1ccc(Nc2c(C#N)cnc3cc(-c4ccc(CN5CCC(N6CCCC6)CC5)cn4)ccc23)cc1Cl` [Example 173, 4-{3-Chloro-4-[(1-methyl-1H-imidazol-2-yl)sulfanyl]anilino}-7-(5-{[4-(1-pyrrolidinyl)-1-piperidinyl]methyl}-2-pyridinyl)-3-quinolinecarbonitrile] gave a melting point of 183 to 185 °C.
Molecule `Cn1ccnc1Sc1ccc(Nc2c(C#N)cnc3cc(-c4ccc(CN5CCC(C(=O)O)CC5)cn4)ccc23)cc1Cl` [Example 175, 1-{[6-(4-{3-chloro-4-[(1-methyl-1H-imidazol-2-yl)sulfanyl]anilino}-3-cyano-7-quinolinyl)-3-pyridinyl]methyl}-4-piperidinecarboxylic acid] has a melting point of 166 to 168 °C.
In the case of `COc1cc(Nc2c(C#N)cnc3cc(-c4ccc(CN5CCC(C(=O)O)CC5)cn4)ccc23)c(Cl)cc1Cl` [Example 177, 1-{6-[3-Cyano-4-(2,4-dichloro-5-methoxyphenylarino)-quinolin-7-yl]-pyridin-3-ylmethyl}-piperidine-4-carboxylic acid], the melting point is reported as 150 °C (dec.).
`Cn1ccnc1Sc1ccc(Nc2c(C#N)cnc3cc(-c4ccc(Cl)cn4)ccc23)cc1Cl` [Example 178, 4-({3-Chloro-4-[(1-methyl-1H-imidazol-2-yl)sulfanyl]phenyl}amino)-7-(5-chloro-2-pyridinyl)-3-quinolinecarbonitrile] showed a melting point of 205 to 207 °C.
For `CCN1CCN(c2ccc(-c3ccc4ncc(C#N)c(Nc5ccc(Sc6nccn6C)c(Cl)c5)c4c3)nc2)CC1` [Example 181, 4-({3-Chloro-4-[(1-methyl-1H-imidazol-2-yl)sulfanyl]phenyl}amino)-6-[5-(4-ethyl-1-piperazinyl)-2-pyridinyl]-3-quinolinecarbonitrile], the melting point was 150 °C (dec.).
With `Cn1ccnc1Sc1ccc(Nc2c(C#N)cnc3ccc(-c4ccc(CN5CCOCC5)cn4)cc23)cc1Cl` [Example 182, 4-({3-Chloro-4-[(1-methyl-1H-imidazol-2-yl)sulfanyl]phenyl}amino)-6-[5-(4-morpholinylmethyl)-2-pyridinyl]-3-quinolinecarbonitrile] the melting point was 238 to 241 °C.
In the case of `CN1CCN(Cc2ccc(-c3ccc4ncc(C#N)c(Nc5ccc(Sc6nccn6C)c(Cl)c5)c4c3)nc2)CC1` [Example 183, 4-({3-Chloro-4-[(1-methyl-1H-imidazol-2-yl)sulfanyl]phenyl}amino)-6-{5-[(4-methyl-1-piperazinyl)methyl]-2-pyridinyl}-3-quinolinecarbonitrile], the melting point is reported as 260 to 262 °C.
`Cn1ccnc1Sc1ccc(Nc2c(C#N)cnc3ccc(-c4ccc(N5CCOCC5)nc4)cc23)cc1Cl` [Example 184, 4-({3-Chloro-4-[(1-methyl-1H-imidazol-2-yl)sulfanyl]phenyl}amino)-6-[6-(4-morpholinyl)-3-pyridinyl]-3-quinolinecarbonitrile] gave a melting point of 276 to 278 °C.
